Data reported in patent US8420571B2, “Synergistic herbicidal composition containing fluroxypyr and cyhalofop, metamifop or profoxydim” (Dow AgroSciences, LLC, priority 2009, dated 2013).
“And” between values parts separate entries of the source, which are not always exact repeats. Identical values can stand only once.

Legend:
Type in all cases: in vivo
[1] = system: Chinese sprangletop (Leptochloa chinensis; LEFCH); assay: Postemergence herbicidal activity of mixtures in the greenhouse, visual weed control; settings: 21 DAA
Method: (§1) Evaluation of Postemergence Herbicidal Activity of Mixtures in the Greenhouse
(§2) Seeds of the desired test plant species were planted in 80% mineral soil/20% grit planting mixture, which typically has a pH of 7.2 and an organic matter content of about 2.9 percent, in plastic pots with a surface area of 128 square centimeters (cm^2). The growing medium was steam sterilized. The plants were grown for 7-19 days in a greenhouse with an approximate 14-hour (h) photoperiod which was maintained at about 29° C. during the day and 26° C. during the night. Nutrients and water were added on a regular basis and supplemental lighting was provided with overhead metal halide 1000-Watt lamps as necessary. The plants were treated with postemergence foliar applications when they reached the third to fourth true leaf stage. All treatments were applied using a randomized complete block trial design, with 4 replications per treatment.
(§3) Treatments consisted of the compounds as listed in Tables 1, 2, 4 and 5 with each compound applied alone and in combination. Formulated amounts of cyhalofop-butyl, metamifop, profoxydim and fluoroxypyr-meptyl ester, were placed in 60 milliliter (mL) glass vials and dissolved in a volume of 60 mL of a water solution containing Agri-dex crop oil concentrate in a 1% volume per volume (v/v) ratio. Compound requirements are based upon a 12 mL application volume at a rate of 187 liters per hectare (L/ha). Spray solutions of the mixtures were prepared by adding the stock solutions to the appropriate amount of dilution solution to form 12 mL spray solution with active ingredients in single and two way combinations. Formulated compounds were applied to the plant material with an overhead Mandel track sprayer equipped with 8002E nozzles calibrated to deliver 187 L/ha at a spray height of 18 inches ([…] (cm)) above average plant canopy.
(§4) The treated plants and control plants were placed in a greenhouse as described above and watered by sub-irrigation to prevent wash-off of the test compounds. Treatments were rated at 14 to 21 days after application as compared to the untreated control plants. Percent visual weed control was scored on a scale of 0 to 100 percent where 0 corresponds to no injury and 100 corresponds to complete kill.
(§5) Colby's equation was used to determine the herbicidal effects expected from the mixtures (Colby, S. R. Calculation of the synergistic and antagonistic response of herbicide combinations. Weeds 1967, 15, 20-22.).
(§6) The following equation was used to calculate the expected activity of mixtures containing two active ingredients, A and B: Expected=A+B−(A×B/100)
(§7) A=observed efficacy of active ingredient A at the same concentration as used in the mixture.
(§8) B=observed efficacy of active ingredient B at the same concentration as used in the mixture.

[2] = system: winklegrass (Ischaemum rugosum; ISCRU); assay: as above; settings: 14 DAA, Table 1
Method: as §1, §2, §3, §4, §5, §6, §7, §8

[3] = system: barnyardgrass (Echinochloa crus-galli; ECHCG); assay: as above
Method: as §1, §2, §3, §4, §5, §6, §7, §8

[4] = system: broadleaf signalgrass (Brachiaria platyphylla; BRAPP); assay: as above
Method: as §1, §2, §3, §4, §5, §6, §7, §8

[5] = system: giant foxtail (Setaria faberi; SETFA); assay: as above; settings: 21 DAA, Table 2
Method: as §1, §2, §3, §4, §5, §6, §7, §8

[6] = system: barnyardgrass (Echinochloa crus-galli; ECHCG); assay: Postemergence herbicidal activity of mixtures in the field (drill-seeded rice), visual weed control; settings: 29-36 DAA, Table 3
Method: (§9) Evaluation of Postemergence Herbicidal Activity of Mixtures in the Field
(§10) Field trials were conducted in drill-seeded rice using standard herbicide small plot research methodology. Plots were typically 3×10 meters (m, width×length) in size with 4 replicates per treatment. The rice crop was grown using normal cultural practices for fertilization, seeding, watering, flooding and maintenance to ensure good growth of the crop and the weeds.
(§11) All treatments in the field trials were applied using a carbon dioxide (CO2) backpack sprayer calibrated to apply 187 L/ha spray volume. Commercially available products of cyhalofop-butyl and fluoroxypyr-meptyl were mixed in water at appropriately formulated product rates to achieve the desired rates based on a unit area of application (hectare) to achieve the desired application rates as shown. Treatments were rated at 29 to 36 days after application (DAA) as compared to the untreated control plants. Percent visual weed control was scored on a scale of 0 to 100 percent where 0 corresponds to no injury and 100 corresponds to complete kill.
(§12) All treatment results, both for the single product and mixtures, are an average of 4 replicates and the tank mix interactions are significant at the […] level using Tukey's T-test.
as §5, §6, §7, §8

[7] = system: tighthead sprangletop (Leptochloa panicoides; LEFPA); assay: as above; settings: 29-36 DAA, Table 3
Method: as §9, §10, §11, §12, §5, §6, §7, §8

[8] = Fluroxypyr 50 g ae/ha alone, 21 DAA, Table 4
[9] = Fluroxypyr 70 g ae/ha alone, 14 DAA, Table 1
[10] = Fluroxypyr 100 g ae/ha alone, 21 DAA, Table 4
[11] = Fluroxypyr 200 g ae/ha alone, 21 DAA, Table 4
[12] = Metamifop 7.5 g ai/ha alone, 21 DAA, Table 4
[13] = Metamifop 15 g ai/ha alone, 21 DAA, Table 4

Nc1c(Cl)c(F)nc(OCC(=O)O)c1Cl [Fluroxypyr, [(4-amino-3,5-dichloro-6-fluoro-2-pyridinyl)oxy]acetic acid]
% Control LEFCH Ob ([1]; Fluroxypyr 50 g ae/ha alone, Table 4): 6% | % Control LEFCH Ob ([1]; Fluroxypyr 70 g ae/ha alone, Table 2): 28% | % Control LEFCH Ob ([1]; Fluroxypyr 100 g ae/ha alone, Table 5): 41% | % Control LEFCH Ob ([1]; Fluroxypyr 140 g ae/ha alone, Table 2): 5% | % Control LEFCH Ob ([1]; Fluroxypyr 200 g ae/ha alone, Table 4): 41% | % Control LEFCH Ob ([1]; Fluroxypyr 200 g ae/ha alone, Table 5): 48% and 49% | % Control ISCRU Ob ([2]; Fluroxypyr 140 g ae/ha alone): 15% | % Control ECHCG Ob [3, 8]: 0% | % Control ECHCG Ob ([3]; Fluroxypyr 50 g ae/ha alone, 21 DAA, Table 5): 0% | % Control ECHCG Ob [3, 9]: 14% | % Control ECHCG Ob [3, 10]: 11% | % Control ECHCG Ob ([3]; Fluroxypyr 100 g ae/ha alone, 21 DAA, Table 5): 0% | % Control ECHCG Ob ([3]; Fluroxypyr 140 g ae/ha alone, 14 DAA, Table 1): 9% | % Control ECHCG Ob [3, 11]: 6% | % Control ECHCG Ob ([3]; Fluroxypyr 200 g ae/ha alone, 21 DAA, Table 5): 5% | % Control ECHCG Ob ([3]; Fluroxypyr 280 g ae/ha alone, 14 DAA, Table 1): 8% | % Control BRAPP Ob [4, 8]: 5% | % Control BRAPP Ob [4, 9]: 22% | % Control BRAPP Ob [4, 10]: 1% | % Control BRAPP Ob [4, 11]: 5% | % Control SETFA Ob ([5]; Fluroxypyr 140 g ae/ha alone): 50% | % Control ECHCG Ob ([6]; Fluroxypyr 580 g ae/ha alone): 0% | % Control LEFPA Ob ([7]; Fluroxypyr 190 g ae/ha alone): 0% | % Control LEFPA Ob ([7]; Fluroxypyr 290 g ae/ha alone): 3% | % Control LEFPA Ob ([7]; Fluroxypyr 580 g ae/ha alone): 0%

C[C@@H](Oc1ccc(Oc2ccc(C#N)cc2F)cc1)C(=O)O [Cyhalofop, (2R)-2-[4-(4-cyano-2-fluorophenoxy)phenoxy]-propanoic acid]
% Control LEFCH Ob ([1]; Cyhalofop 63 g ae/ha alone, Table 2): 67% | % Control ISCRU Ob ([2]; Cyhalofop 126 g ae/ha alone): 15% | % Control ECHCG Ob ([3]; Cyhalofop 63 g ae/ha alone, 14 DAA, Table 1): 55% | % Control ECHCG Ob ([3]; Cyhalofop 126 g ae/ha alone, 14 DAA, Table 1): 73% | % Control BRAPP Ob ([4]; Cyhalofop 253 g ae/ha alone, 14 DAA, Table 1): 77% | % Control SETFA Ob ([5]; Cyhalofop 63 g ae/ha alone): 82% | % Control ECHCG Ob ([6]; Cyhalofop 262 g ae/ha alone): 67% | % Control LEFPA Ob ([7]; Cyhalofop 262 g ae/ha alone): 33%

CCCC(=NOCC(C)Oc1ccc(Cl)cc1)C1=C(O)CC(C2CCCSC2)CC1=O (stereo not shown) [Profoxydim, 2-[1-[[2-(4-chlorophenoxy)propoxy]imino]-butyl]-3-hydroxy-5-(tetrahydro-2H-thiopyran-3-yl)-2-cyclohexen-1-one]
% Control LEFCH Ob ([1]; Profoxydim 25 g ai/ha alone, Table 5): 61% | % Control LEFCH Ob ([1]; Profoxydim 50 g ai/ha alone, Table 5): 78% | % Control ECHCG Ob ([3]; Profoxydim 25 g ai/ha alone, 21 DAA, Table 5): 54%

C[C@@H](Oc1ccc(Oc2nc3ccc(Cl)cc3o2)cc1)C(=O)N(C)c1ccccc1F [Metamifop, (2R)-2-[4-[(6-chloro-2-benzoxazolyl)oxy]-phenoxy]-N-(2-fluorophenyl)-N-methylpropanamide]
% Control LEFCH Ob ([1]; Metamifop 7.5 g ai/ha alone, Table 4): 23% | % Control LEFCH Ob ([1]; Metamifop 30 g ai/ha alone, Table 4): 88% | % Control ECHCG Ob [3, 12]: 5% | % Control ECHCG Ob [3, 13]: 33% | % Control ECHCG Ob ([3]; Metamifop 30 g ai/ha alone, 21 DAA, Table 4): 74% | % Control BRAPP Ob [4, 12]: 25% | % Control BRAPP Ob [4, 13]: 54%
